According to patent US20230127046A1, “G9a INHIBITOR” (RIKEN, priority 2019, published 2023):
Where two headings read alike, the source gives them in different places.

How the values were obtained:
[1] = biological target: T1, recombinant human G9a protein (Homo sapiens, UniProt Q96KQ7); experiment: G9a inhibitory activity test (ALPHA); type: biochemical
T1 construct: purchased BPS Bioscience Inc. #51001
T1 sequence (Q96KQ7 785-1210 limits assumed): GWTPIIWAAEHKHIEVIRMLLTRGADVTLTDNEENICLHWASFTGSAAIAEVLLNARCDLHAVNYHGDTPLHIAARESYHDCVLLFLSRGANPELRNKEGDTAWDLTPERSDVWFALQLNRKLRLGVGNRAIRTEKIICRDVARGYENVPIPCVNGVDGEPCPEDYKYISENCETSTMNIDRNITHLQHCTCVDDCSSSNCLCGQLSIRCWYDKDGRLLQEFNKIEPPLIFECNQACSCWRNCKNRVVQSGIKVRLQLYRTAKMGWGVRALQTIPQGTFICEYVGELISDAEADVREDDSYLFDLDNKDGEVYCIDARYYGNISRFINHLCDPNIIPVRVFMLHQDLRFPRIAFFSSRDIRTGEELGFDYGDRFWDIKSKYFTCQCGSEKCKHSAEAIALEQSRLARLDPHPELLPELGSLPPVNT
How it was run: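 Human G9a (0.05 to 0.1 nM) in Tris pH 9.0 buffer preincubated with compound 10 min, then biotinylated histone H3 (1-21) peptide and SAM mixed 1:1 from 500 nM and 150 μM solutions, 1 h at room temperature. H3K9me2 detected by AlphaLISA acceptor/streptavidin donor beads; IC50 from percent inhibition relative to no-compound and no-enzyme controls.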

[2] = system: intracellular histone H3K9 dimethylation level in human lung cancer cell line NCI-H460; experiment: Histone H3K9 dimethylation inhibitory activity test (Western blotting); type: cell-based; details: NCI-H460 cells, 72 hours
Description: The inhibitory activity of each compound against G9a was evaluated by adding the compound to a human lung cancer cell line NCI-H460, and detecting change in intracellular histone H3K9 dimethylation level by Western blotting. The NCI-H460 cells were cultured in a DMEM medium (FUJIFILM Wako Pure Chemical Corp., 044-29765) containing 10% fetal bovine serum and 4 mM glutamine. The cultured cells were washed with PBS and then detached with trypsin/EDTA, and the cell suspension was adjusted to 2.5×10^4 cells/mL. The cell suspension was inoculated at 500 μL/well to a 24-well microplate (Thermo Fisher Scientific, Inc., 142475) and cultured overnight under conditions of 37° C. and 5% CO2. On the next day, the test compound (solution in DMSO) was added at 0.5 µL/well and reacted for 72 hours under conditions of 37° C. and 5% CO2. DMSO was added at 0.5 μL/well to control wells (final DMSO concentration: 0.1%). The medium was removed, and the cells were washed with PBS. Then, a 2×SDS-PAGE sample buffer (100 mM Tris-HCl (pH 6.8), 4% sodium lauryl sulfate, 2% 2-mercaptoethanol, 20% glycerol, 0.005% bromophenol blue) was added at 50 μL/well to prepare a sample. The recovered sample was heated at 95 to 100° C. for 10 minutes, and protein was separated by polyacrylamide gel electrophoresis (SDS-PAGE). Subsequently, the separated protein was transferred to a polyvinylidene fluoride (PVDF) membrane by semi-dry blotting. The PVDF membrane was dipped in 3% skimmed milk (dissolved in PBS containing 0.05% Tween 20 (PBST)), blocked at room temperature for 30 to 60 minutes, then dipped in an anti-dimethylated histone H3K9 antibody (Abcam plc, ab1220) diluted 1000-fold with 3% skimmed milk, and reacted overnight at 4° C. On the next day, the PVDF membrane was washed three times with PBST, then dipped in a HRP (horseradish peroxidase)-labeled anti-mouse IgG antibody diluted 10000-fold with skimmed milk, and reacted at room temperature for 1 hour. The PVDF membrane was washed three times with PBST, then dipped in chemiluminescent substrate solution Immobilon Western Chemiluminescent HRP Substrate (Merck Millipore, WBKLS0500), incubated at room temperature for 5 minutes, and photographed with Lumino Image Analyzer (GE Healthcare Japan Corp., ImageQuant LAS4000).
Then, the antibody was stripped from the PVDF membrane using re-probe reagent EzReprobe (ATTO Corp., WSE-7240), and trimethylated histone H3K9 and histone H3 were detected by the same procedures as above. An anti-trimethyl histone H3K9 antibody (39161, diluted 1000-fold) from Active Motif, Inc. and an anti-histone H3 antibody (ab1791, diluted 2000-fold) from Abcam plc were used in the detection. The band of each protein was quantified from the taken image using image processing software ImageJ (NIH). The ratios of dimethylated histone H3K9 and trimethylated histone H3K9 to the histone H3 protein were calculated with the numeric value of a compound-unsupplemented sample defined as 100%. A compound concentration at which the ratio of dimethylated histone H3K9 was 50% was calculated as a 50% inhibition concentration (IC50 value) using data analysis software Origin (LightStone Corp.).

[3] = system: human lung cancer cell line NCI-H460; experiment: Colony formation inhibition test; type: cell-based; details: 288 h, NCI-H460 cells, culture for 12 days, read-out: Inhibitory activity (colony formation GI50)
Description: Each compound was evaluated for its colony formation inhibitory activity against a human lung cancer cell line NCI-H460. The NCI-H460 cells were cultured in a DMEM medium (FUJIFILM Wako Pure Chemical Corp., 044-29765) containing 10% fetal bovine serum and 4 mM glutamine. The cultured cells were washed with PBS, then detached with trypsin/EDTA, and adjusted to 2×10^3 cells/mL to prepare a cell suspension. The cell suspension was inoculated at 1 mL/well to a 12-well microplate (Corning Inc., 3513), and the test compound (DMSO solution) was added at 1 μL/well, followed by culture for 12 days under conditions of 37° C. and 5% CO2. DMSO was added at 1 μL/well to control wells with a final DMSO concentration set to 0.1%. The medium was discarded every day or every two days, and a fresh medium was added at 1 mL/well. The test compound or DMSO was added at 1 μL/well. The proportion of a colony of each well was measured using a high-speed cell imaging system (Tomy Digital Biology Co., Ltd., Celigo). The ratio of the colony in each compound-supplemented group was determined with the ratio of the colony formed in a test compound solution-unsupplemented well defined as 1. A compound concentration necessary for suppressing the rate of colony formation by 50% of the control (GI50) was calculated using data analysis software Origin (LightStone Crop.).

[4] = read-out: Inhibitory activity (G9a IC50)
[5] = biotinylated histone H3 peptide (1-21), SAM, read-out: Inhibitory activity (G9a IC50 value)

Compound	IC50 [1, 4] [nM]	IC50 [2] [nM]	GI50 [3] [nM]	IC50 [1, 5] [nM]
Cc1c(C(=O)NC(CCC2CC2)C(=O)N2CCc3ccccc32)[nH]c2c1C(=O)CC(C)(C)C2 (centres unmarked) [Example 1-81]		50 to 500	< 500	50 to 200
O=C(Cc1ccccc1)NC(CCC1CC1)C(=O)Nc1ccc(OC2COC2)nc1 (centres unmarked) [Example 1-87]		50 to 500	≥ 1000	50 to 200
CCCCC(NC(=O)c1[nH]c2c(c1C)C(=O)CC(C)(C)C2)C(=O)Nc1cccc(C)c1C (centres unmarked) [Example 1-25]				≥ 200
CCCCC(NC(=O)c1[nH]c2c(c1C)C(=O)CC(C)(C)C2)C(=O)NCc1cccc(N2CCN(C)CC2)c1 (centres unmarked) [Example 1-92]				≥ 200
CCCCC(NC(=O)c1[nH]c2c(c1C)C(=O)CC(C)(C)C2)C(=O)Nc1cccc2cnccc12 (centres unmarked) [Example 1-94]				≥ 200
Cc1c(C(=O)NC(CCC2CC2)C(=O)N2CCc3cc(OCCN(C)C)ccc3C2)[nH]c2c1C(=O)CC(C)(C)C2 (centres unmarked) [Example 1-140]	≥ 200			
CCCCC(NC(=O)c1[nH]c2c(c1C)C(=O)CC(C)(C)C2)C(=O)Nc1ccc(N)cc1 (centres unmarked) [Example 21, N-[1-(4-aminoanilino)-1-oxohexan-2-yl]-3,6,6-trimethyl-4-oxo-5,7-dihydro-1H-indole-2-carboxamide]	≥ 200			
Cc1c(C(=O)NC(CCC2CC2)C(=O)N2CCc3c(OCC4CCN(C)CC4)cccc32)[nH]c2c1C(=O)CC(C)(C)C2 (centres unmarked) [Example 1-121]	≥ 200			
CCCCC(NC(=O)c1[nH]c2c(c1C)C(=O)CC(C)(C)C2)C(=O)Nc1ccc(CCN2CCCCC2)cc1 (centres unmarked) [Example 1-4]				< 50
CCCCC(NC(=O)c1[nH]c2c(c1C)C(=O)CC(C)(C)C2)C(=O)NC1(c2ccccc2)CC1 (centres unmarked) [Example 1-53]				50 to 200
O=C(NC(CCC1CC1)C(=O)Nc1ccc(OC2COC2)nc1)c1ccc(Nc2ccncc2)cc1 (centres unmarked) [Example 1-88]				< 50
CCc1nc(C)ccc1NC(=O)C(CCC1CC1)NC(=O)c1[nH]c2c(c1C)C(=O)CC(C)(C)C2 (centres unmarked) [Example 1-75]				≥ 200
Cc1c(C(=O)NC(CCC2CC2)C(=O)N2CCc3c(OCCCN4CCCCC4)cccc32)[nH]c2c1C(=O)CC(C)(C)C2 (centres unmarked) [Example 1-118]	≥ 200			

Results, then the compound that gave them:

IC50 [1, 4] [nM]	IC50 [2] [nM]	GI50 [3] [nM]	IC50 [1, 5] [nM]	Compound
< 50	< 50	< 500		CCCC[C@H](NC(=O)c1[nH]c2c(c1C)C(=O)CC(C)(C)C2)C(=O)Nc1ccc(OC2CCN(C)CC2)cc1OC [Example 6-30]
≥ 200	50 to 500	≥ 1000		CCCCC(NC(=O)Cc1ccccc1)C(=O)Nc1ccc(OC2CCN(C)CC2)nc1 (centres unmarked) [Example 12-2]
50 to 200	< 50	500 to 1000		Cc1c(C(=O)NC(CCC2CC2)C(=O)Nc2ccccc2)[nH]c2c1C(=O)CC(C)(C)C2 (centres unmarked) [Example 6-17]
< 50	50 to 500	< 500		COc1ccc(NC(=O)C(CCC2CC2)NC(=O)c2ccc(N(C)c3ccncc3)cc2)cn1 (centres unmarked) [Example 6-55]
≥ 200	50 to 500	≥ 1000		CCCC[C@H](NC(=O)c1[nH]c2c(c1C)C(=O)CC(C)(C)C2)C(=O)Nc1ccccc1 [Example 6-33]
50 to 200	< 50	500 to 1000		CCCC[C@H](NC(=O)c1[nH]c2c(c1C)C(=O)CC(C)(C)C2)C(=O)NCc1ccc(N2CCN(C)CC2)cc1 [Example 22-2]
≥ 200	50 to 500	500 to 1000		COc1ccc(NC(=O)C(CCC2CC2)NC(=O)c2ccc(CN3CCN(C)CC3)cc2)cn1 (centres unmarked) [Example 6-52]
< 50	50 to 500	500 to 1000		Cc1ccc(NC(=O)[C@H](CCC2CC2)NC(=O)c2[nH]c3c(c2C)C(=O)CC(C)(C)C3)cn1 [Example 6-10]
< 50	50 to 500	< 500		COc1ccc(NC(=O)C(CCC2CC2)NC(=O)c2ccc(Nc3ccncc3)cc2C)cn1 (centres unmarked) [Example 6-51]
< 50	< 50	< 500		CCCC[C@H](NC(=O)c1[nH]c2c(c1C)C(=O)CC(C)(C)C2)C(=O)Nc1ccc(OC2CCN(C)CC2)cc1 [Example 6-32]
< 50	< 50	500 to 1000		CCCC[C@H](NC(=O)c1[nH]c2c(c1C)C(=O)CC(C)(C)C2)C(=O)NCc1ccc(CN(C)C)cc1 [Example 6-34]
50 to 200	≥ 500	≥ 1000		CCCC[C@H](NC(=O)c1[nH]c2c(c1C)C(=O)CC(C)(C)C2)c1nc2ccc(OC3CCNCC3)cc2[nH]1 [Example 35-1, (S)-3,6,6-trimethyl-4-oxo-N-(1-(6-(piperidin-4-yloxy)-1H-benzo[d]imidazol-2-yl)pentyl)-4,5,6,7-tetrahydro-1H-indole-2-carboxamide]
< 50	< 50	< 500		COc1ccc(NC(=O)[C@H](CCC2CC2)NC(=O)c2ccc(Nc3ccncc3)cc2)cn1 [Example 6-88]
< 50	≥ 500	≥ 1000		CCCC[C@H](NC(=O)c1[nH]c2c(c1C)C(=O)CC(C)(C)C2)c1nc2ccc(OCC3CCNCC3)cc2[nH]1 [Example 35-2]
50 to 200				CCCC[C@H](NC(=O)c1[nH]c2c(c1CC)C(=O)CC(C)(C)C2)C(=O)N[C@@H](CC)c1ccccc1 [Example 6-39]
50 to 200				Cc1c(C(=O)N[C@@H](CCC2CC2)C(=O)NC2CCN(C)CC2)[nH]c2c1C(=O)CC(C)(C)C2 [Example 6-27]
≥ 200				COc1ccc(NC(=O)C(CCC2CC2)NC(=O)Cc2cccc3ccccc23)cn1 (centres unmarked) [Example 6-53]
< 50				Cc1c(C(=O)NC(CCC2CC2)C(=O)N(C)Cc2ccc(CN(C)C)cc2)[nH]c2c1C(=O)CC(C)(C)C2 (centres unmarked) [Example 6-20]
< 50				CCCCC(NC(=O)c1[nH]c2c(c1C)C(=O)CC(C)(C)C2)C(=O)NCc1ccc(CN)cc1 (centres unmarked) [Example 24-2]
≥ 200				COc1ccc(NC(=O)C(CCC2CC2)NC(=O)c2ccc(C3=CCN(C)CC3)cc2)cn1 (centres unmarked) [Example 6-68]
